According to patent US8883500B2, “Method of preparing adenosine-resistant anti-tumor T lymphocytes for adoptive immunotherapy” (Northeastern University, priority 2008, dated 2014):
Values joined by “and” are separate entries in the source; they are usually repeats but may differ in a detail not shown here. Equal values may be shown once.

Tests used:
[1] = test system: A2A/A2B adenosine receptor; test: cAMP assay in CTL; format: cell-based, mice; details: control CTL; cAMP inducer 10 μM (FIG. 6 legend), 15 min
Method: Stimulation of cAMP production and measurement of cAMP levels were performed as described previously (Apasov et al., 2000). […]; from Tocris, Ellisville, Mo.), or forskolin (adenylate cyclase activator; from Sigma). […]

CTL = test: IFN-γ production from CTL restimulated by immobilized anti-CD3 and anti-CD28 mAbs (ELISA); format: cell-based, mice; design: IFN-γ levels (%) of corresponding CTL without CGS/NECA / IFN-γ levels (%), None (reference = 100): unit of the concentration uncertain; details: for IFN-γ levels (%) of corresponding CTL without CGS/NECA: anti-CD3/anti-CD28 24 h in presence of the agonist (10 (unit uncertain)); for IFN-γ production: control CTL restimulated with anti-CD3 mAb, agonist 10 μM; for IFN-γ levels: restimulation without agonist (None); for IFN-γ levels (%), None (reference = 100): no agonist at restimulation
Method: CTL (2×10^5 cells) were washed twice with media and restimulated by plate-bound anti-CD3 and anti-CD28 monoclonal antibodies (mAb) (BD Biosciences, San Diego, Calif.). Anti-CD3 mAb (2 μg ml^−1) and anti-CD28 mAb (1 μg ml^−1) diluted in PBS were immobilized in a flat-bottom 96-well plastic culture plate for 1 h at 37° C. before use. In order to examine anti-tumor cellular response, CTL (2×10^5 cells) were also cultured with mitomycin C-treated P815 mastocytoma (2.5×10^5 cells). […]. Culture supernatant after 24-48 h was assayed for IFN-γ levels by ELISA.

CD8+ T cells = test: Flowcytometric analysis (CD8 proportion, intracellular IFN-γ staining); format: cell-based, mice; details: for reduction of IFN-γ producers: control CTL, agonist 10 μM
Method: Cells recovered from mixed lymphocyte culture were labeled with phycoerythrin-conjugated anti-CD8, allophycocyanin-conjugated anti-CD4 and fluorescein-conjugated anti-CD69 mAb, and were analyzed by FACSCalibur (BD Biosciences). Cytokine production from CTL was analyzed by intracellular staining as described (Nishimura et al., 1999). After the stimulation with immobilized anti-CD3 and anti-CD28 mAb for 24 h, cells were further incubated in the presence of brefeldin A (10 μg ml^−1) for 2 h. Cells were fixed with 4% parafolmaldehyde-PBS for 15 min, permeabilized with permeabilizing buffer (50 mM NaCl, 5 mM EDTA, 0.02% NaN3, 0.5% Triton X-100, 10 mM Tris-HCl, pH 7.5) for 15 min, and stained with fluorescein-labeled anti-IFN-γ mAb. IFN-γ-producing CD8^+ cells were identified by cell surface staining using phycoerythrin-conjugated anti-CD8 mAb. All antibodies were obtained from BD Biosciences.

[2] = test system: mixed lymphocyte culture of C57BL/6 and DBA/2 spleen cells (CTL); test: Mixed lymphocyte culture: cell proliferation ([3H] thymidine incorporation) and cell number; format: cell-based, mice; details: for cell number, % of control: primary mixed lymphocyte culture 5 days
Method: (§1) Antigen-specific cytotoxic T cells were induced by allogenic mixed lymphocyte culture using spleen cells from C57BL/6 (H-2^b) and DBA/2 (H-2^d) mice. Spleen cells from DBA/2 mice were pretreated with 50 μg ml^−1 mitomycin C (Sigma; St. Louis, Mo.) for 30 min at 37° C. After washing three times by centrifugation, 2×10^6 DBA/2 spleen cells (stimulator) were mixed with 6×10^6 C57BL/6 spleen cells (responder) in 2 ml of RPMI1640 medium containing 10% fetal calf serum. The cells were cultured for 5 days in a 12 well plastic plate. In some experiments, CTL (2×10^6 cells) were restimulated on day 5 using mitomycin C-treated DBA/2 spleen cells (4×10^6 cells). The restimulated cells were cultured for additional 2 days, and were analyzed on day 7.
(§2) Culture supernatant was collected 5 days after the set up of mixed lymphocyte culture or 2 days after restimulation and was stored at 4° C. for subsequent measurement of interferon-γ (IFN-γ) levels. IFN-γ was quantified by ELISA (R&D Systems; Minneapolis, Minn.) according to manufacturer's instruction. Cells were incubated for additional 4 h in the presence of 1 μCi [3H] thymidine (American Radiolabeled Chemicals, St. Louis, Mo.) and radioactivity of incorporated thymidine was counted.

[3] = test system: mixed lymphocyte culture of C57BL/6 and DBA/2 spleen cells (CTL); test: IFN-γ levels in mixed lymphocyte culture supernatant (ELISA); format: cell-based, mice; details: for IFN-γ levels in the culture supernatant, decreased to: primary mixed lymphocyte culture 5 days
Method: as §1, §2

P815 mastocytoma = test: Cytotoxicity assay, 51Cr release
Method: Cytotoxicity of T cells against P815 mastocytoma (H-2^d) was determined by ^51Cr release assay. Initially, P815 cells (2×10^6) were incubated with 100 μCi [^51Cr] sodium chromate (Perkin Elmer, Boston, Mass.) for 1 h at 37° C. The cells were washed for three times by centrifugation to remove excess radioactivity. The labeled P815 cells (1×10^4 cells) were mixed with the effector cells recovered from mixed lymphocyte culture in a volume of 150 μl. […] Sedimentation of the cells in a v-bottom 96 well plate by brief centrifugation was followed by incubation at 37° C. After 4 h, ^51Cr release in the supernatant from target cells was counted using γ-radiation counter. Spontaneous ^51Cr release was measured by culturing target cells alone. Maximum ^51Cr release was measured by adding 1N hydrochloric acid to the same number of target cells. Cytotoxicity was calculated as percentage cell lysis when spontaneous and maximum ^51Cr release were set to 0% and 100%, respectively.

[4] = CTL developed with NECA (0.1 (unit uncertain))
[5] = CTL developed with NECA (1 (unit uncertain))
[6] = CTL developed with NECA (10 (unit uncertain))
[7] = NECA (0.1-1 μM) added only for 2 days after restimulation of 5-day CTL

## CCNC(=O)[C@H]1O[C@@H](n2cnc3c(N)nc(NCCc4ccc(CCC(=O)O)cc4)nc32)[C@H](O)[C@@H]1O [CGS]
[1]
  increase of cAMP levels: 7.4 fold
CTL; [4]
  IFN-γ levels (%) of corresponding CTL without CGS/NECA: 57 ± 8 %
CTL; [5]
  IFN-γ levels (%) of corresponding CTL without CGS/NECA: 67 ± 10 %
CTL; [6]
  IFN-γ levels (%) of corresponding CTL without CGS/NECA: 80 ± 13 %
CTL; Control CTL
  IFN-γ levels (%) of corresponding CTL without CGS/NECA: 44% and 44 ± 11%
CTL
  IFN-γ production: strongly inhibited
CTL; negatively selected NECA-CTL tested for inhibition by CGS
  IFN-γ producing capacity retained: up to 80%
CD8+ T cells
  reduction of IFN-γ producers: 70%

## CCNC(=O)[C@H]1O[C@@H](n2cnc3c(N)ncnc32)[C@H](O)[C@@H]1O [NECA, 5′-N-ethylcarboxamidoadenosine]
[2]; [7]
  proliferation of CTL after restimulation: inhibit proliferation of CTL
[2]; NECA 0.1 μM
  cell number, % of control: 78%
[2]; NECA 1 μM
  cell number, % of control: 72%
[2]; NECA 10 μM
  cell number, % of control: 68%
[2]; primary mixed lymphocyte culture, 5 days in the presence of NECA (0.1-10 μM)
  Cell proliferation, [3H] thymidine incorporation, decreased to: 30-40%
[1]
  increase of cAMP levels: 11.1 fold
CTL; CTL developed with NECA 0.1 μM (table; 0.1 μM)
  IFN-γ levels: 3722 pg/mL
CTL; CTL developed with NECA 1 mM (table; 1 μM)
  IFN-γ levels: 2327 pg/mL
CTL; CTL developed with NECA 10 mM (table; 10 μM)
  IFN-γ levels: 1089 pg/mL
CTL; [4]
  IFN-γ levels (%) of corresponding CTL without CGS/NECA: 44 ± 12 %
  IFN-γ levels (%), None (reference = 100): 100 ± 23%
CTL; [5]
  IFN-γ levels (%) of corresponding CTL without CGS/NECA: 56 ± 8 %
  IFN-γ levels (%), None (reference = 100): 100 ± 19%
CTL; [6]
  IFN-γ levels (%) of corresponding CTL without CGS/NECA: 60 ± 8 %
  IFN-γ levels (%), None (reference = 100): 100 ± 5%
CTL; Control CTL
  IFN-γ levels (%) of corresponding CTL without CGS/NECA: 28 ± 7%
CTL
  IFN-γ production: strongly inhibited
[3]; [7]
  IFN-γ levels in the culture supernatant after restimulation: inhibit
[3]; 10^−5 M NECA
  IFN-γ levels in the culture supernatant, decreased to: 18%
[3]; 10^−7 M NECA
  IFN-γ levels in the culture supernatant, decreased to: 44%
P815 mastocytoma; CTL from primary culture with 10^−5 M NECA, effector-target ratio 5:1
  Cytotoxicity, % of control: 33%
P815 mastocytoma; NECA added only for 2 days after restimulation, effector-target ratio 5:1, 2.5:1, 1.25:1
  cytotoxicity against P815: not impaired
CD8+ T cells; NECA added only for 2 days after restimulation
  proportion of CD8+ T cells in the expanded cells: unchanged from control CTL
CD8+ T cells
  reduction of IFN-γ producers: 70%
